Source: ChEMBL document CHEMBL1137399, “Synthesis, structure-activity relationships, and antitumor studies of 2-benzoxazolyl hydrazones derived from alpha-(N)-acyl heteroaromatics” (J Med Chem, 2006)
The source made the active and inactive calls. No cut-off for these calls is given here.

Columns and labels:
HeLa [1] = assay: Antiproliferative activity against HeLa cells by SRB assay; type: functional, cell-based; details: Homo sapiens
CCRF-CEM = assay: Antiproliferative activity against CCRF-CEM cells by MTT assay; type: functional, cell-based; details: Homo sapiens
Burkitts lymphoma cell = assay: Antiproliferative activity against Burkitt cells by MTT assay; type: functional, cell-based; details: Homo sapiens
HT-29 = assay: Antiproliferative activity against HT29 cells by SRB assay; type: functional, cell-based; details: Homo sapiens
HeLa [2] = assay: Antiproliferative activity against HeLa-mdr1 cells overexpressing P-glycoprotein in presence of verapamil by SRB assay; type: functional, cell-based; details: Homo sapiens
HL-60 = assay: Ratio for antiproliferative activity against HL60/AR cells to wild type HL60 by MTT assay; type: functional, Homo sapiens
OVCAR-3 = assay: Net cell kill against human OVCAR-3 cells by hollow fiber assay; type: functional, cell-based
SF-295 = assay: Net cell kill against human SF295 cells by hollow fiber assay; type: functional, cell-based

| IC50 (HeLa [1]) [nM] | IC50 (CCRF-CEM) [nM] | IC50 (Burkitts lymphoma cell) [nM] | IC50 (HT-29) [nM] | Compound | Activity (HeLa [2]) | Ratio IC50 (HL-60) | Activity (OVCAR-3) | Activity (SF-295) |
| --- | --- | --- | --- | --- | --- | --- | --- | --- |
| 340 | 350 | 200 | 1930 | C/C(=N\Nc1nc2ccccc2o1)c1nccc2ccccc12 |  |  |  |  |
| 100 | 140 | 30 | 40 | C/C(=N\Nc1nc2ccccc2o1)c1cc2ccccc2cn1 | inactive | 1.7 | Active | Active |
| 1180 | 720 | 1300 | 2640 | C/C(=N\Nc1nc2ccccc2o1)c1cccnn1 |  |  |  |  |
| 1860 | 1300 | 900 | 2140 | C/C(=N\Nc1nc2ccccc2o1)c1nccnc1C |  |  |  |  |
| 43 | 78 | 120 | 44 | c1ccc(/C(=N\Nc2nc3ccccc3o2)c2ccccn2)cc1 |  |  |  |  |
| 288 |  | 27 | 4780 | C/C(=N\Nc1nc2ccccc2o1)c1cccc[n+]1[O-] |  |  |  |  |
| 185 | 21 | 14 | 645 | CC(C)/C(=N\Nc1nc2ccccc2o1)c1ccccn1 |  |  |  |  |
| 42 | > 10000 | > 10000 | 219 | c1ccc(C/C(=N\Nc2nc3ccccc3o2)c2ccccn2)cc1 |  |  |  |  |

Continued, molecule first:

| Compound | IC50 (HeLa [1]) [nM] | IC50 (CCRF-CEM) [nM] | IC50 (Burkitts lymphoma cell) [nM] | IC50 (HT-29) [nM] | Activity (HeLa [2]) | Ratio IC50 (HL-60) | Activity (OVCAR-3) | Activity (SF-295) |
| --- | --- | --- | --- | --- | --- | --- | --- | --- |
| C/C(=N\Nc1nc2ccccc2o1)c1ncccn1 | 180 | 130 | 30 | 270 |  |  |  |  |
| CCC/C(=N\Nc1nc2ccccc2o1)c1ccccn1 | 153 | 6 | 6 | 851 |  |  |  |  |
| c1ccc(/C(=N/Nc2nc3ccccc3o2)C2CC2)nc1 | 4490 |  | 185 | 20600 |  |  |  |  |
| C/C(=N\Nc1nc2ccccc2o1)c1ccncn1 | 500 | 360 | 144 | 190 |  |  |  |  |
| C/C(=N\Nc1nc2ccccc2o1)c1ccc(C)nn1 | 3390 | 2550 | 6270 | 6770 |  |  |  |  |
| CC[C@]1(O)C[C@@H]2CN(CCc3c([nH]c4ccccc34)[C@@](C(=O)OC)(c3cc4c(cc3OC)N(C)[C@H]3[C@@](O)(C(=O)OC)[C@H](OC(C)=O)[C@]5(CC)C=CCN6CC[C@]43[C@@H]65)C2)C1 |  |  |  |  | Active |  |  |  |
| C/C(=N\Nc1nc2ccccc2o1)c1cc(C)ncn1 | 210 | 230 | 42 | 110 |  |  |  |  |
| CC(C)(C)/C(=N\Nc1nc2ccccc2o1)c1ccccn1 | > 10000 | > 10000 | > 10000 | > 10000 |  |  |  |  |
| CC/C(=N\Nc1nc2ccccc2o1)c1ccccn1 | 52 | 4 | 2 | 409 |  |  |  |  |
| C/C(=N\Nc1nc2ccccc2o1)c1ccc2ccccc2n1 | 4530 | 7040 | 5490 | 7760 |  |  |  |  |
| c1ccc(C(=NNc2nc3ccccc3o2)c2ccccn2)nc1 | 156 | 44 | 12 | 6980 |  |  |  |  |
| C/C(=N\Nc1nc2ccccc2o1)c1ccccn1 | 770 | 24 | 5 | 1430 |  |  |  |  |
| C/C(=N\Nc1nc2ccccc2o1)c1cccnc1 | > 100000 | > 100000 | > 100000 | > 100000 |  |  |  |  |
| C/C(=N\Nc1nc2ccccc2o1)c1cnc(C)cn1 | 370 | 620 | 150 | 290 |  |  |  |  |
| C/C(=N\N(C)c1nc2ccccc2o1)c1ccccn1 | > 50000 | > 50000 | > 50000 | > 50000 |  |  |  |  |
